This passage reports IC50 and Ki results from ChEMBL document CHEMBL1909046, “DrugMatrix in vitro pharmacology data”.

Test [1] concerns the target Sigma non-opioid intracellular receptor 1 (Homo sapiens, UniProt Q99720). The test is described as follows: DRUGMATRIX: Sigma1 radioligand binding (ligand: [3H] Haloperidol). Type of test: cell membranes, Jurkat, Membrane. To be noted: Not Active = under 50% inhibition at 10 µM.
A short description of test [2]: DRUGMATRIX: GABAA, Chloride Channel, TBOB radioligand binding (ligand: [3H] TBOB). Type of test: cell membranes, Rattus norvegicus, Wistar, Cerebral cortex, Membrane. The following applies: Not Active = under 50% inhibition at 10 µM.
A short description of test [3]: DRUGMATRIX: Imidazoline I2, Central radioligand binding (ligand: [3H] Idazoxan). The class given is cell membranes, Rattus norvegicus, Wistar, Cerebral cortex, Membrane. To be noted: Not Active = under 50% inhibition at 10 µM.
Test [4] concerns the target Protein phosphatase 3 catalytic subunit alpha (Homo sapiens, UniProt Q08209). More on the design: species or system Escherichia coli.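 Further: inhibition of calcineurin (PP2B) enzyme activity, measured with DiFMUP as the substrate; in other assays of this panel Not Active means under 50% inhibition at 10 µM.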
Test [5] is described as follows: DRUGMATRIX: Purinergic P2X radioligand binding (ligand: [3H] alpha, beta-Methylene-ATP). Type of test: cell membranes, Oryctolagus cuniculus, New Zealand albino, Urinary bladder, Membrane. The following applies: Not Active = under 50% inhibition at 10 µM.
The target of another test is Acetylcholinesterase (Homo sapiens, UniProt P22303). The test can be described thus: DRUGMATRIX: Acetylcholinesterase enzyme inhibition (substrate: acetylthiocholine). Type of test: cell-based, HEK293. To be noted: hek293; Not Active = under 50% inhibition at 10 µM.
Chain of Acetylcholinesterase (P22303 whole entry): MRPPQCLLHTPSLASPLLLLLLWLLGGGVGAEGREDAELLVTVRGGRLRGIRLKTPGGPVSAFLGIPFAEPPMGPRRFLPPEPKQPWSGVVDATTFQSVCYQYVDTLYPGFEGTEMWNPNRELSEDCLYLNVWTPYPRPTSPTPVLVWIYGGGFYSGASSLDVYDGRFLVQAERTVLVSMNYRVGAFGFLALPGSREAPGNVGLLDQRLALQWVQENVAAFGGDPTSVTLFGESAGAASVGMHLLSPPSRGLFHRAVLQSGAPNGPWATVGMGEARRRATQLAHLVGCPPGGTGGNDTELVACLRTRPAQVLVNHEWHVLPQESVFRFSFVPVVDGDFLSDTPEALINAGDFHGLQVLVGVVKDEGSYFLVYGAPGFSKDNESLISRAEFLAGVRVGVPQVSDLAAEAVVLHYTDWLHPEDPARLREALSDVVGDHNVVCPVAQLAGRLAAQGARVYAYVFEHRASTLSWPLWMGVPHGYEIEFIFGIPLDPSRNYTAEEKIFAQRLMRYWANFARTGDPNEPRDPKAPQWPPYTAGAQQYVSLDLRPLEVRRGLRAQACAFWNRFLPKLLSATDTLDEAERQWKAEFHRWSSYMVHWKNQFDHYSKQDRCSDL

Chain of Sigma non-opioid intracellular receptor 1 (Q99720 whole entry): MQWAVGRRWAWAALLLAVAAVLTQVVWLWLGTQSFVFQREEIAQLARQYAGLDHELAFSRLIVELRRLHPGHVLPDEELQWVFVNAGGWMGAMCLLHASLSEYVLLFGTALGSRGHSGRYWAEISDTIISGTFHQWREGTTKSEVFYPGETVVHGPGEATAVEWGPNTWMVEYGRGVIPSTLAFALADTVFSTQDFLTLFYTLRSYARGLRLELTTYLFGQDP

In general, IC50 refers to the concentration needed to halve the response being measured. One may read the Ki as the equilibrium dissociation constant of an inhibitor or competing ligand from its target. As to `Oc1ccc(/C=C/c2cc(O)cc(O)c2)cc1` [RESVERATROL], the IC50 entry (in test [1] (jurkat); in test [2]; in test [3]; in test [4]; in test [5]; at Acetylcholinesterase) was “Not Active” each time. Moreover, the Ki result in test [2], in test [3] and in test [5] was “Not Active” each time.
In the case of `CC1=C(/C=C/C(C)=C/C=C/C(C)=C/C(=O)O)C(C)(C)CCC1` [TRETINOIN], the IC50 result (in test [1] (jurkat); in test [2]; in test [3]; in test [4]; in test [5]; against Acetylcholinesterase) was “Not Active” in each case. The Ki entry in test [2], in test [3] and in test [5] was “Not Active” each time.
For the molecule `CC[C@@]1(O)C(=O)OCc2c1cc1n(c2=O)Cc2cc3c(CN(C)C)c(O)ccc3nc2-1` [TOPOTECAN], the concentration for half-maximal inhibition (IC50) result (in test [1] (jurkat); in test [2]; in test [3]; in test [4]; in test [5]; against Acetylcholinesterase) was “Not Active” each time. Besides, the inhibitory constant (Ki) entry in test [2], in test [3] and in test [5] was “Not Active” each time.
As to `O=C(OC[C@H]1O[C@@H](OC(=O)c2cc(O)c(O)c(OC(=O)c3cc(O)c(O)c(O)c3)c2)[C@H](OC(=O)c2cc(O)c(O)c(OC(=O)c3cc(O)c(O)c(O)c3)c2)[C@@H](OC(=O)c2cc(O)c(O)c(OC(=O)c3cc(O)c(O)c(O)c3)c2)[C@@H]1OC(=O)c1cc(O)c(O)c(OC(=O)c2cc(O)c(O)c(O)c2)c1)c1cc(O)c(O)c(OC(=O)c2cc(O)c(O)c(O)c2)c1` [TANNIC ACID], the IC50 entry (in test [1] (jurkat); in test [2]; in test [3]; in test [4]; in test [5]; against Acetylcholinesterase) was “Not Active” each time. Besides, the inhibition constant Ki result in test [2], in test [3] and in test [5] was “Not Active” in each case.
Take `CC(Cl)(Cl)Cl` [TRICHLOROETHANE]: the half-maximal inhibitory concentration (IC50) entry (in test [1] (jurkat); in test [2]; in test [3]; in test [4]; in test [5]; at Acetylcholinesterase) was “Not Active” throughout. The Ki entry in test [2], in test [3] and in test [5] was “Not Active” in each case.
With `C=CCc1ccc2c(c1)OCO2` [SAFROLE], the IC50 result (in test [1] (jurkat); in test [2]; in test [3]; in test [4]; in test [5]; against Acetylcholinesterase) was “Not Active” throughout. Besides, the Ki result in test [2], in test [3] and in test [5] was “Not Active” throughout.
For the molecule `O=C1CC[C@@]2(O)[C@H]3Cc4ccc(O)c5c4[C@@]2(CCN3CC2CC2)[C@H]1O5` [NALTREXONE], the concentration for half-maximal inhibition (IC50) entry (in test [1] (jurkat); in test [2]; in test [3]; in test [4]; in test [5]; against Acetylcholinesterase) was “Not Active” in each case. In addition, the Ki result in test [2], in test [3] and in test [5] was “Not Active” each time.
For `CN1C(=O)OC(C)(C)C1=O` [TRIMETHADIONE], the IC50 entry (in test [1] (jurkat); in test [2]; in test [3]; in test [4]; in test [5]; against Acetylcholinesterase) was “Not Active” in each case. Also, the inhibition constant (Ki) result in test [2], in test [3] and in test [5] was “Not Active” throughout.
Consider `CC(O)C(=O)O` (stereo not given) [LACTIC ACID], for which the 50% inhibitory concentration (IC50) result (in test [1] (jurkat); in test [2]; in test [3]; in test [4]; in test [5]; against Acetylcholinesterase) was “Not Active” each time. Also, the Ki result in test [2], in test [3] and in test [5] was “Not Active” in each case.
`CS(=O)(=O)c1ccc(C2=C(c3ccccc3)C(=O)OC2)cc1` [ROFECOXIB]: the IC50 result (in test [1] (jurkat); in test [2]; in test [3]; in test [4]; in test [5]; at Acetylcholinesterase) was “Not Active” each time. Besides, the Ki entry in test [2], in test [3] and in test [5] was “Not Active” in each case.
As for `C[N+]1(C)[C@@H]2C[C@@H](OC(=O)[C@H](CO)c3ccccc3)C[C@H]1[C@@H]1O[C@@H]12.[Br-]` [METHSCOPOLAMINE BROMIDE], the IC50 result (in test [1] (jurkat); in test [2]; in test [3]; in test [4]; in test [5]; at Acetylcholinesterase) was “Not Active” throughout. Besides, the Ki result in test [2], in test [3] and in test [5] was “Not Active” throughout.
Consider `Cc1nnc(NS(=O)(=O)c2ccc(N)cc2)s1` [SULFAMETHIZOLE], for which the IC50 entry (in test [1] (jurkat); in test [2]; in test [3]; in test [4]; in test [5]; at Acetylcholinesterase) was “Not Active” each time. For the same molecule, the Ki result in test [2], in test [3] and in test [5] was “Not Active” in each case.
Turning to `CC(=O)O[C@]1(C(C)=O)CC[C@H]2[C@@H]3C[C@H](C)C4=CC(=O)CC[C@]4(C)[C@H]3CC[C@@]21C` [MEDROXYPROGESTERONE ACETATE], the half-maximal inhibitory concentration (IC50) result (in test [1] (jurkat); in test [2]; in test [3]; in test [4]; in test [5]; at Acetylcholinesterase) was “Not Active” throughout. Further, the Ki entry in test [2], in test [3] and in test [5] was “Not Active” each time.
`CC1(C)[C@H](C(=O)O)N2C(=O)C[C@H]2S1(=O)=O` [SULBACTAM]: the IC50 entry (in test [1] (jurkat); in test [2]; in test [3]; in test [4]; in test [5]; against Acetylcholinesterase) was “Not Active” throughout. For the same molecule, the inhibition constant Ki entry in test [2], in test [3] and in test [5] was “Not Active” throughout.
For the molecule `O=C(O)c1cc(/N=N/c2ccc(S(=O)(=O)Nc3ccccn3)cc2)ccc1O` [SULFASALAZINE], the IC50 result (in test [1] (jurkat); in test [2]; in test [3]; in test [4]; in test [5]; against Acetylcholinesterase) was “Not Active” in each case. Besides, the inhibitory constant (Ki) result in test [2], in test [3] and in test [5] was “Not Active” in each case.
For the molecule `CCN(CC)CCNC(=O)c1cc(Cl)c(N)cc1OC` [METOCLOPRAMIDE], the IC50 result in test [1] (jurkat) was “Not Active”; in test [2], “Not Active”; in test [3] (read-out: IC50), 0.708 µM; in test [4], “Not Active”; in test [5], “Not Active”; at Acetylcholinesterase, “Not Active”. The inhibition constant (Ki) entry in test [2] is “Not Active”; in test [3] (read-out: Ki), 0.472 µM; in test [5], “Not Active”.
For the molecule `COC(=O)Nc1nc2ccc(C(=O)c3ccccc3)cc2[nH]1` [MEBENDAZOLE], the IC50 result (in test [1] (jurkat); in test [2]; in test [3]; in test [4]; in test [5]; against Acetylcholinesterase) was “Not Active” each time. Besides, the Ki result in test [2], in test [3] and in test [5] was “Not Active” throughout.
Consider `Cc1ccnc(NS(=O)(=O)c2ccc(N)cc2)n1` [SULFAMERAZINE], for which the IC50 entry (in test [1] (jurkat); in test [2]; in test [3]; in test [4]; in test [5]; against Acetylcholinesterase) was “Not Active” in each case. Further, the Ki entry in test [2], in test [3] and in test [5] was “Not Active” throughout.
For `Cc1cccc(C)c1NC(=O)C(C)N` (stereo not given) [TOCAINIDE], the IC50 result (in test [1] (jurkat); in test [2]; in test [3]; in test [4]; in test [5]; at Acetylcholinesterase) was “Not Active” each time. Besides, the inhibition constant Ki entry in test [2], in test [3] and in test [5] was “Not Active” throughout.
As to `CC#C[C@]1(O)CC[C@H]2[C@@H]3CCC4=CC(=O)CCC4=C3[C@@H](c3ccc(N(C)C)cc3)C[C@@]21C` [MIFEPRISTONE], the IC50 in test [1] (read-out: IC50) is 26.3 µM; in test [2], “Not Active”; in test [3], “Not Active”; in test [4], “Not Active”; in test [5], “Not Active”; against Acetylcholinesterase, “Not Active”. Also, the Ki in test [1] (read-out: Ki) was 11 µM; in test [2], “Not Active”; in test [3], “Not Active”; in test [5] it was “Not Active”.
In the case of `C[C@]12CCC(=O)C[C@@H]1CC[C@@H]1[C@@H]2CC[C@]2(C)[C@@H](O)CC[C@@H]12` [STANOLONE], the IC50 entry (in test [1] (jurkat); in test [2]; in test [3]; in test [4]; in test [5]; against Acetylcholinesterase) was “Not Active” each time. In addition, the Ki result in test [2], in test [3] and in test [5] was “Not Active” each time.
